Assay results reported in patent US6953809B2, “Monocyte chemoattractant protein-1 inhibitor compounds” (Zeneca Limited, priority 1997, dated 2005).
Like-named read-outs stand apart in the source and are kept apart here.

Experiments:
MCP-1 receptor B (CCR2B) = target: T1, MCP-1 receptor B (CCR2B) (Homo sapiens, UniProt P41597); assay: hMCP-1 receptor-binding assay (125I-MCP-1 competition on CHO-CCR2B cell membranes)
T1 construct: expressed in transfected cells; membrane fragments
T1 sequence (P41597 1-360 isoform P41597-2): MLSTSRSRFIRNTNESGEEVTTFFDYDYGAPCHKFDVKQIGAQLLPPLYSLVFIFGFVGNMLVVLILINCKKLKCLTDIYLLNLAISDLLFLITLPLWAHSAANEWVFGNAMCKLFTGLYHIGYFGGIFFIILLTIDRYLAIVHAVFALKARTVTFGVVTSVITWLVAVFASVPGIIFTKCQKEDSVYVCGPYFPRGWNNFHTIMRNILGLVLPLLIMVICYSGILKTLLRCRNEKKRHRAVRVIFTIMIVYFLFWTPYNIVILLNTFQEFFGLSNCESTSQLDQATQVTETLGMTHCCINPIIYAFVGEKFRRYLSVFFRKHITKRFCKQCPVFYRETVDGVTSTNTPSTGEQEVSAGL
From the text: a) hMCP-1 Receptor-Binding Assay i) Cloning and Expression of hMCP-1 Receptor
The MCP-1 receptor B (CCR2B) cDNA was cloned by PCR from THP-1 cell RNA using suitable oligonucleotide primers based on the published MCP-1 receptor sequences (Charo et al., 1994, Proc. Natl. Acad. Sci. USA, 91, 2752). The resulting PCR products were cloned into vector PCR-II™ (InVitrogen, San Diego, Calif.). Error free CCR2B cDNA was subcloned as a Hind III-Not I fragment into the eukaryotic expression vector pcDNA3 (InVitrogen) to generate pcDNA3/CC-CKR2A and pcDNA3/CCR2B respectively.
Linearised pcDNA3/CCR2B DNA was transfected into CHO-K1 cells by calcium phosphate precipitation (Wigler et al., 1979, Cell, 16, 777). Transfected cells were selected by the addition of Geneticin Sulphate (G418, Gibco BRL) at 1 mg/ml, 24 hours after the cells had been transfected. Preparation of RNA and Northern blotting were carried out as described previously (Needham et al., 1995, Prot. Express. Purific., 6, 134). CHO-K1 clone 7 (CHO-CCR2B) was identified as the highest MCP-1 receptor B expressor. […]
ii) Preparation of Membrane Fragments […]
^125I MCP-1 was prepared using Bolton and Hunter conjugation (Bolton et al., 1973, Biochem. J., 133, 529; Amersham International plc]. Equilibrium binding assays were carried out using the method of Ernst et al., 1994, J. Immunol., 152, 3541. Briefly, varying amounts of ^125I-labeled MCP-1 were added to […] of purified CHO-CCR2B cell membranes in […] of Binding Buffer. After 1 hour incubation at room temperature the binding reaction mixtures were filtered and washed 5 times through a plate washer (Packard Harvester Filtermate™ 196). Scintillation fluid (25 μl, Microscint™-20, a high efficiency liquid scintillation counting cocktail for aqueous samples) was added to each well and the plate was covered with plate sealer and counted (Packard Top Count™). […] Non-specific binding was determined by the inclusion of a 200-fold molar excess of unlabelled MCP-1 in the reaction. […]

THP-1 cells [1] = assay: MCP-1 mediated calcium flux in THP-1 cells; format: cell-based, human; details: stimulation of THP-1 cells with hMCP-1; dose response curves; read-out: approximate EC50 for rise in [Ca2+]i
Protocol: b) MCP-1 Mediated Calcium Flux in THP-1 Cells
The human monocytic cell line THP-1 was grown in a synthetic cell culture medium RPMI 1640 supplemented with 10% foetal calf serum, 2 mM glutamine and Penicillin-Streptomycin (at 50 μg streptomycin/mil, Gibco BRL). THP-1 cells were washed in HBSS (lacking Ca^2+ and Mg^2+)+1 mg/ml BSA and resuspended in the same buffer at a density of 3×10^6 cells/ml. The cells were then loaded with […] FURA-2/AM for 30 min at 37° C., washed twice in HBSS, and resuspended at 1×10^6 cells/ml. […] The cuvette was placed in a fluorescence spectrophotometer (Perkin Elmer, Norwalk, Conn.) and preincubated for 4 min at 37° C. with stirring. Fluorescence was recorded over 70 sec and cells were stimulated by addition of hMCP-1 to the cuvette after 10 sec. [Ca^2+]i was measured by excitation at 340 nm and 380 nm alternately and subsequent measurement of the intensity of the fluorescence emission at 510 nm. […] Rmax is the maximal fluorescence ratio determined after addition of […] Ionomycin, Rmin is the minimal ratio determined by the subsequent addition of a Ca^2+ free solution containing 5 mM EGTA, and Sf2/Sb2 is the ratio of fluorescence values at 380 nm excitation determined at Rmin and Rmax, respectively. […]

THP-1 cells [2] = assay: hMCP-1 mediated chemotaxis assay; format: cell-based, human; details: hMCP-1 induced concentration dependent cell migration
Protocol: c) hMCP-1 Mediated Chemotaxis Assay.
In vitro chemotaxis assays were performed using either the human monocytic cell line THP-1 or peripheral blood mixed monocytes obtained from fresh human blood purified by erythrocyte sedimentation followed by density gradient centrifugation over 9.6%(w/v) sodium metrizoate and 5.6%(w/v) polysaccharide, density 1.077 g/ml (Lymphoprep™ Nycomed). Cell migration through polycarbonate membranes was measured by enumerating those passing through either directly by Coulter counting or indirectly by use of a colourimetric viability assay measuring the cleavage of a tetrazolium salt by the mitochondrial respiratory chain (Scudiero D. A. et al. 1988, Cancer Res., 48, 48274833).
Chemoattractants were introduced into a 96-well microtiter plate which forms the lower well of a chemotaxis chamber fitted with a PVP-free 5 μm poresize polycarbonate adhesive framed filter membrane (NeuroProbe MB series, Cabin John, Md. 20818, USA) according to the manufacturer's instructions. The chemoattractant was diluted as appropriate in synthetic cell culture medium, RPMI 1640 (Gibco) supplemented with 2 mM glutamine and 0.5% BSA. […] The plate was incubated at 37° C. for 3 h and the absorbance of the soluble formazan product was read on a microtitre plate reader at 450 nm. […]

Row | Compound | melting point [°C] | other results
1 | O=C(O)c1cc2ccccc2n1Cc1ccc(Cl)c(Cl)c1 | 198 | –
2 | COc1cccc2c1cc(C(=O)O)n2Cc1ccc(Cl)c(Cl)c1 | 220 to 221 | –
3 | COc1ccc2cc(C(=O)O)n(Cc3ccc(Cl)c(Cl)c3)c2c1 | 165 to 166 | –
4 | CC(=O)c1c(C(=O)O)n(Cc2ccc(Cl)c(Cl)c2)c2ccccc12 | 163 to 164 | –
5 | COc1ccc(Cn2c(C(=O)O)cc3cc(F)ccc32)cc1 [Example 3.23, 5-Fluoro-N-(4-methoxybenzyl)indole-2-carboxylic acid] | – | IC50 (MCP-1 receptor B (CCR2B); competition with 100 pM labelled MCP-1, CHO-CCR2B cell membranes, read-out: IC50 in the hMCP-1 receptor binding assay): 7380 nM
6 | O=C(O)c1cc2ccc([N+](=O)[O-])cc2n1Cc1ccc(Cl)c(Cl)c1 [Example 3.64, N-(3,4-Dichlorobenzyl)-6-nitroindole-2-carboxylic acid] | 256 to 257 | –
7 | CC(=O)Nc1ccc2c(c1)cc(C(=O)O)n2Cc1ccc(Cl)c(Cl)c1 [Example 4, N-(3,4-Dichlorobenzyl)-5-acetylaminoindole-2-carboxylic acid] | 245 to 246 | –
8 | MCP-1: human Monocyte Chemoattractant Protein-1, a C—C chemokine; natural ligand used to validate the assays | – | IC50 (MCP-1 receptor B (CCR2B); membrane fragments from CHO-CCR2B cells, cold competition with 125I-labeled MCP-1, read-out: IC50 of MCP-1 binding to CCR2B): 0.11 nM; Kd (MCP-1 receptor B (CCR2B); membrane fragments from CHO-CCR2B cells, equilibrium binding): 0.12 nM; EC50 (THP-1 cells [1]): ~2 nM; concentration of maximal cell migration (biphasic response) (THP-1 cells [2]): 0.5-1.0 nm

More lines, main results first:

Row | melting point [°C] | Compound | other results
9 | 232 to 233 | O=C(O)c1cc2cc(Br)ccc2n1Cc1ccc(Cl)c(Cl)c1 | –
10 | 219 to 220 | O=C(O)c1cc2ccc(Cl)cc2n1Cc1ccc(Cl)c(Cl)c1 | –
11 | 238 to 239 | O=C(O)c1cc2ccc(C(F)(F)F)cc2n1Cc1ccc(Cl)c(Cl)c1 | –
12 | 184 to 185 | O=C(O)c1c([C@@H]2C[C@H]2C(=O)O)c2ccccc2n1Cc1ccc(Cl)c(Cl)c1 (relative stereo) [Example 3.58, N-(3,4-Dichlorobenzyl)-3-(trans-2-carboxy-cyclopropyl)indole-2-carboxylic acid] | –
13 | 133 to 140 | CCOC(=O)c1cc2cc([N+](=O)[O-])ccc2n1Cc1ccc(Cl)c(Cl)c1 [Example 1.03, Ethyl N-(3,4-dichlorobenzyl)-5-nitroindole-2-carboxylate] | –
14 | 95 to 96 | CCOC(=O)c1cc2cc(Br)ccc2n1Cc1ccc(Cl)c(Cl)c1 [Example 1.04, Ethyl 5-bromo-N-(3,4-dichlorobenzyl)indole-2-carboxylate] | –
15 | 296 to 297 | O=C(O)c1cc2c([N+](=O)[O-])cccc2n1Cc1ccc(Cl)c(Cl)c1 [Example 3.65, N-(3,4-Dichlorobenzyl)-4-nitroindole-2-carboxylic acid] | –
16 | 261 to 262 | CC(=O)c1ccc2c(c1)cc(C(=O)O)n2Cc1ccc(Cl)c(Cl)c1 [Example 3.85, 5-Acetyl-N-(3,4-Dichlorobenzyl)indole-2-carboxylic acid] | –
